Data reported in ChEMBL document CHEMBL3414561, “Discovery of 4'-chloromethyl-2'-deoxy-3',5'-di-O-isobutyryl-2'-fluorocytidine (ALS-8176), a first-in-class RSV polymerase inhibitor for treatment of human respiratory syncytial virus infection” (J Med Chem, 2015).
pEC50, pIC50: −log10 of the molar value. The source made the active and inactive calls. No cut-off for these calls is given here.

Key:
[1] = biological target: DNA-directed RNA polymerase, mitochondrial (Homo sapiens) (UniProt O00411); assay: Binding affinity to human mitochondrial RNA polymerase assessed as compound incorporation using [33P]RNA/DNA primer/templates used by […] gel electrophoresis
[2] = biological target: DNA polymerase beta (Homo sapiens) (UniProt P06746); assay: Inhibition of human DNA-dependent DNA polymerase beta using calf thymus DNA/[3H]dTTP as substrate by microplate scintillation reader; settings: concentration not given here
[3] = biological target: DNA-directed RNA polymerase, mitochondrial (Homo sapiens) (UniProt O00411); assay: Inhibition of human mitochondrial RNA polymerase assessed as 13-mer product using [33P]RNA/DNA primer/templates used by […] gel electrophoresis
Homo sapiens [4] = species: Homo sapiens; assay: Inhibition of human DNA-dependent DNA polymerase gamma using calf thymus DNA/[3H]dTTP as substrate by microplate scintillation reader; settings: concentration not given here
[5] = Inhibition of Respiratory syncytial virus RNA polymerase in crude RSV RNP complex assessed as inhibition of [33P]CMP incorporation into RNA chain
Homo sapiens [6] = species: Homo sapiens; assay: Inhibition of human DNA-dependent DNA polymerase alpha using calf thymus DNA/[3H]dTTP as substrate by microplate scintillation reader; settings: concentration not given here
Homo sapiens [7] = species: Homo sapiens; assay: Inhibition of human DNA-directed RNA polymerase 2 using cytomegalovirus DNA fragment as substrate; settings: concentration not given here
[8] = Cytotoxicity against human HeLa cells assessed as cell viability by CellTiter-Glo luminescent assay; format: cell-based
[9] = Drug uptake in Non-naive cynomolgus monkey assessed as lung NTP level at 5 mg/kg, po 4'-chloromethyl-2'-deoxy-2'-fluorocytidine equivalent dose after 12 hrs; format: ADME, organism-based, Macaca fascicularis; set-up: dose 5 mg/kg, route oral; settings: in vivo, read-out: Drug uptake
[10] = system: Respiratory syncytial virus; assay: Antiviral activity against Respiratory syncytial virus subgenomic replicon system in 395 HeLa cells assessed as reduction in viral replication after 7 days by renilla luciferase assay; format: functional, organism-based; settings: human respiratory syncytial virus, 168 h
[11] = Drug uptake in Non-naive cynomolgus monkey assessed as lung NMP level at 5 mg/kg, po 4'-chloromethyl-2'-deoxy-2'-fluorocytidine equivalent dose after 12 hrs; format: ADME, organism-based, Macaca fascicularis; set-up: dose 5 mg/kg, route oral; settings: in vivo, read-out: Drug uptake
[12] = Drug uptake in male syrian golden hamster assessed as lung NTP level at 5 mg/kg, iv after 1 hr; format: ADME, organism-based, Mesocricetus auratus; set-up: dose 5 mg/kg, route intravenous; settings: in vivo, read-out: Drug uptake
[13] = Clearance in Sprague-Dawley rat at 5 mg/kg, iv; format: ADME, organism-based; set-up: dose 5 mg/kg, route intravenous; settings: in vivo
[14] = AUCinf in male syrian golden hamster at 5 mg/kg, iv; format: ADME, organism-based, Mesocricetus auratus; set-up: time infinity, dose 5 mg/kg, route intravenous; settings: plasma
[15] = Half life in Sprague-Dawley rat at 5 mg/kg, iv; format: ADME, organism-based; set-up: dose 5 mg/kg, route intravenous; settings: in vivo
[16] = Half life in male syrian golden hamster at 5 mg/kg, iv; format: ADME, organism-based, Mesocricetus auratus; set-up: dose 5 mg/kg, route intravenous; settings: in vivo
[17] = Drug uptake in male syrian golden hamster assessed as lung NMP level at 5 mg/kg, iv after 1 hr; format: ADME, organism-based, Mesocricetus auratus; set-up: dose 5 mg/kg, route intravenous; settings: in vivo, read-out: Drug uptake
A549 = assay: Drug metabolism in human A549 cells assessed as nucleotide 5'-triphosphate level measured per million cells at 50 uM after 1 to 5 days by LC/MS/MS analysis; format: ADME, cell-based; settings: a549, 50 µM
[18] = Drug uptake in Non-naive cynomolgus monkey assessed as lung NTP level at 5 mg/kg, iv after 1 hr; format: ADME, organism-based, Macaca fascicularis; set-up: dose 5 mg/kg, route intravenous; settings: in vivo, read-out: Drug uptake
[19] = Drug uptake in Non-naive cynomolgus monkey assessed as lung NMP level at 5 mg/kg, iv after 1 hr; format: ADME, organism-based, Macaca fascicularis; set-up: dose 5 mg/kg, route intravenous; settings: in vivo, read-out: Drug uptake
[20] = Drug metabolism in human Hep2 cells assessed as nucleotide 5'-triphosphate level measured per million cells at 50 uM after 1 to 5 days by LC/MS/MS analysis; format: ADME, cell-based; settings: hep-2, 50 µM
[21] = Drug metabolism in human normal bronchial epithelial cells assessed as nucleotide 5'-triphosphate level measured per million cells at 50 uM after 1 to 5 days by LC/MS/MS analysis; format: ADME, cell-based; settings: epithelial cell
[22] = Clearance in Non-naive cynomolgus monkey at 5 mg/kg, iv; format: ADME, organism-based, Macaca fascicularis; set-up: dose 5 mg/kg, route intravenous; settings: in vivo
Syrian golden hamster = assay: Ratio of uridine metabolite to parent cytidine in male syrian golden hamster at 5 mg/kg, iv; format: ADME, organism-based, Mesocricetus auratus; set-up: dose 5 mg/kg, route intravenous; settings: in vivo
[23] = Half life in Non-naive cynomolgus monkey at 5 mg/kg, iv; format: ADME, organism-based, Macaca fascicularis; set-up: dose 5 mg/kg, route intravenous; settings: in vivo
[24] = Volume of distribution at steady state in male syrian golden hamster at 5 mg/kg, iv; format: ADME, organism-based, Mesocricetus auratus; set-up: dose 5 mg/kg, route intravenous; settings: in vivo, read-out: Vdss
[25] = AUCinf in Non-naive cynomolgus monkey at 5 mg/kg, iv; format: ADME, organism-based, Macaca fascicularis; set-up: time infinity, dose 5 mg/kg, route intravenous; settings: plasma
[26] = Volume of distribution at steady state in Sprague-Dawley rat at 5 mg/kg, iv; format: ADME, organism-based; set-up: dose 5 mg/kg, route intravenous; settings: in vivo, read-out: Vdss
[27] = AUCinf in Sprague-Dawley rat at 5 mg/kg, iv; format: ADME, organism-based; set-up: time infinity, dose 5 mg/kg, route intravenous; settings: plasma
Cynomolgus monkey = assay: Ratio of uridine metabolite to parent cytidine in Non-naive cynomolgus monkey at 5 mg/kg, iv; format: ADME, organism-based, Macaca fascicularis; set-up: dose 5 mg/kg, route intravenous; settings: in vivo
[28] = Volume of distribution at steady state in Non-naive cynomolgus monkey at 5 mg/kg, iv; format: ADME, organism-based, Macaca fascicularis; set-up: dose 5 mg/kg, route intravenous; settings: in vivo, read-out: Vdss
[29] = Drug metabolism in human nasal cells assessed as nucleotide 5'-triphosphate level measured per million cells at 50 uM after 1 to 5 days by LC/MS/MS analysis; format: ADME, cell-based
[30] = Clearance in male syrian golden hamster at 5 mg/kg, iv; format: ADME, organism-based, Mesocricetus auratus; set-up: dose 5 mg/kg, route intravenous; settings: in vivo

DNA-directed RNA polymerase, mitochondrial (Homo sapiens), sequence (O00411 whole entry): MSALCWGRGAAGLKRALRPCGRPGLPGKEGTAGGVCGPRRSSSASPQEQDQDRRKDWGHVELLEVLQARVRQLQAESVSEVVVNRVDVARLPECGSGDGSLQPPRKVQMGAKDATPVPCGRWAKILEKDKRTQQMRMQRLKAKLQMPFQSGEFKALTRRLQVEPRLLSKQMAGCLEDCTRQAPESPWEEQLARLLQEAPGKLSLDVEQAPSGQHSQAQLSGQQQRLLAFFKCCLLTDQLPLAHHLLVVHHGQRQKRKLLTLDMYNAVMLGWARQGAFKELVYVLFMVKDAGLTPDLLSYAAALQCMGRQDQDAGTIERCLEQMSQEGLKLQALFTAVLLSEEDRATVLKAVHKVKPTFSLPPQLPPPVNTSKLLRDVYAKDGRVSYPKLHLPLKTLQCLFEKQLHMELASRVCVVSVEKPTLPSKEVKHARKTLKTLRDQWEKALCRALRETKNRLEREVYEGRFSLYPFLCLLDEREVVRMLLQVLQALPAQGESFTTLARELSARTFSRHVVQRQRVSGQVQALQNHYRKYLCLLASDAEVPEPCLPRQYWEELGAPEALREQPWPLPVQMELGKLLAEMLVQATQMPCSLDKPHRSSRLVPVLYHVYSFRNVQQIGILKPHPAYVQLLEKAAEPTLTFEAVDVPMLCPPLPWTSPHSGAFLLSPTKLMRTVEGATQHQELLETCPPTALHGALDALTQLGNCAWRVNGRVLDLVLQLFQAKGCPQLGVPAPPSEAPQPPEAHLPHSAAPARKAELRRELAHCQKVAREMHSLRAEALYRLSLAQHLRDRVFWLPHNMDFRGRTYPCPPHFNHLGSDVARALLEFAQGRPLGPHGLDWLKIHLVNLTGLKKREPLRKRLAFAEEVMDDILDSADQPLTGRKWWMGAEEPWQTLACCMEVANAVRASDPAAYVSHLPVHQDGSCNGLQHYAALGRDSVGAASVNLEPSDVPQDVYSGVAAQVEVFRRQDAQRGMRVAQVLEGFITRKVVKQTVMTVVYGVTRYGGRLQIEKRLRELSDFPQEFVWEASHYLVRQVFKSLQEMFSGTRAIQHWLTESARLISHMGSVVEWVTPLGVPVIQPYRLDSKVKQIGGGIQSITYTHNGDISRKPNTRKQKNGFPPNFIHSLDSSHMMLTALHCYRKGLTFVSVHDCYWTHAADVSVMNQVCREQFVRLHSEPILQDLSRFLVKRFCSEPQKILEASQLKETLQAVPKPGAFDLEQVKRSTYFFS

For `Nc1ccn([C@@H]2O[C@](CF)(COP(=O)(O)OP(=O)(O)OP(=O)(O)O)[C@@H](O)[C@H]2F)c(=O)n1`, the Activity [1] was “Active”, the inhibition [2] was under 50% and the inhibition [3] was “Active”. The inhibition (Homo sapiens [4]) was under 50%, the pIC50 [5] was 6.92 and the inhibition (Homo sapiens [6]) was under 50%. The inhibition (Homo sapiens [7]) was under 50%.
Work on `CO[C@]1(COP(=O)(O)OP(=O)(O)OP(=O)(O)O)O[C@@H](n2ccc(N)nc2=O)[C@H](F)[C@@H]1O` yielded a pIC50 [5] of 7.15.
Work on `C[C@]1(COP(=O)(O)OP(=O)(O)OP(=O)(O)O)O[C@@H](n2ccc(N)nc2=O)[C@H](F)[C@@H]1O` yielded a pIC50 [5] of 8.00.
`C=CC[C@]1(COP(=O)(O)OP(=O)(O)OP(=O)(O)O)O[C@@H](n2ccc(N)nc2=O)[C@H](F)[C@@H]1O` showed a pIC50 [5] of 7.05.
In the case of `Nc1ccn([C@@H]2O[C@H](COP(=O)(O)OP(=O)(O)OP(=O)(O)O)[C@@H](O)[C@H]2F)c(=O)n1`, the Activity [1] was “Active” and the inhibition [3] was “Active”.
Work on `Nc1ccn([C@@H]2O[C@@](COP(=O)(O)OP(=O)(O)OP(=O)(O)O)(C3CC3)[C@@H](O)[C@H]2F)c(=O)n1` yielded a pIC50 [5] of 6.70.
Compound `CC(C)[C@H](N)C(=O)O[C@H]1[C@@H](F)[C@H](n2ccc(N)nc2=O)O[C@@]1(CO)CCl` has a CC50 [8] of over 100 µM, a concentration [9] of 915 nM and a pEC50 [10] of 7.22. For the same compound, the concentration [11] was 861 nM.
For `Nc1ccn([C@@H]2O[C@H](COP(=O)(O)OP(=O)(O)OP(=O)(O)O)[C@@H](O)C2(F)F)c(=O)n1`, the Activity [1] was “Active” and the inhibition [3] was “Active”.
`C#C[C@]1(COP(=O)(O)OP(=O)(O)OP(=O)(O)O)O[C@@H](n2ccc(N)nc2=O)[C@H](F)[C@@H]1O` gave a pIC50 [5] of 6.89.
Compound `CC(C)C(=O)OC[C@@]1(CCl)O[C@@H](n2ccc(N)nc2=O)[C@H](F)[C@@H]1OC(=O)C(C)C` [LUMICITABINE] has a CC50 [8] of over 100 µM, a concentration [9] of 1480 nM and a pEC50 [10] of 6.59. The concentration [11] was 679 nM.
Work on `CC[C@]1(CO)O[C@@H](n2ccc(N)nc2=O)[C@H](F)[C@@H]1O` yielded a CC50 [8] of over 100 µM, a concentration [12] of 42.2 nM and a clearance [13] of 25.5 mL/min/kg. For the same compound, the AUC(0-inf) [14] was 2460 ng·h/mL, the half-life [15] was 1.34 h and the half-life [16] was 1.23 h. For the same compound, the concentration [17] was 144 nM, the Drug metabolism (A549) was 85.1 pmol and the concentration [18] was 3070 nM. The concentration [19] was 3310 nM, the Drug metabolism [20] was 119 pmol and the Drug metabolism [21] was 489 pmol. It also gave a clearance [22] of 19.2 mL/min/kg, a Ratio (Syrian golden hamster) of 0.0005 and a half-life [23] of 7.52 h. The Vd [24] was 1.07 L/kg, the AUC(0-inf) [25] was 4360 ng·h/mL and the pEC50 [10] was 6.38. It also gave a Vd [26] of 1.67 L/kg, an AUC(0-inf) [27] of 3140 ng·h/mL and a Ratio (Cynomolgus monkey) of 0.67. The Vd [28] was 1.8 L/kg, the Drug metabolism [29] was 140 pmol and the clearance [30] was 34.1 mL/min/kg.
For `Nc1ccn([C@@H]2O[C@@](CO)(CCl)[C@@H](O)[C@H]2F)c(=O)n1` [ALS-8112], the CC50 [8] was over 100 µM, the concentration [12] was 70.9 nM and the clearance [13] was 31.8 mL/min/kg. The AUC(0-inf) [14] was 3230 ng·h/mL, the half-life [15] was 6.01 h and the half-life [16] was 3.98 h. It also gave a concentration [17] of 287 nM, a concentration [9] of 185 nM and a Drug metabolism (A549) of 137 pmol. It also gave a concentration [18] of 4060 nM, a concentration [19] of 9920 nM and a Drug metabolism [20] of 94.7 pmol. The Drug metabolism [21] was 581 pmol, the clearance [22] was 28 mL/min/kg and the Ratio (Syrian golden hamster) was 0.025. For the same compound, the half-life [23] was 5.44 h, the Vd [24] was 2.3 L/kg and the AUC(0-inf) [25] was 2980 ng·h/mL. It also gave a pEC50 [10] of 6.82, a Vd [26] of 4.1 L/kg and a concentration [11] of 254 nM. It also gave an AUC(0-inf) [27] of 2670 ng·h/mL, a Ratio (Cynomolgus monkey) of 0.48 and a Vd [28] of 3 L/kg. It also gave a Drug metabolism [29] of 185 pmol and a clearance [30] of 28.6 mL/min/kg.
Work on `[N-]=[N+]=N[C@]1(COP(=O)(O)OP(=O)(O)OP(=O)(O)O)O[C@@H](n2ccc(N)nc2=O)[C@H](O)[C@@H]1O` yielded a pIC50 [5] of 6.62.
